From US20220280561A1, “COPPER-ATSM FOR TREATING NEURODEGENERATIVE DISORDERS ASSOCITED WITH MITOCHONDRIAL DYSFUNCTION” (RESEARCH INSTITUTE AT NATIONWIDE CHILDREN'S HOSPITAL, priority 2019, published 2022)

How the values were obtained:
[1] = 1 μM CuATSM in vitro; cited from earlier work
[2] = system: IRF2BPL astrocytes co-cultured with neurons; assay: co-culture of CuATSM-pretreated IRF2BPL astrocytes with neurons; type: cell-based, human; details: astrocytes treated starting day 2 of differentiation; 3 days in culture
Experimental: FIG. 20A) Schematic of drug screen co-culture assay. FIG. 20B) Representative image of neurons following 3 days in co-culture. FIG. 20C) Quantification of neuron survival following co-culture show reduced survival with IRF2BPL astrocytes. […] Data was normalized to average neuron survival of healthy controls. Data represents a minimum of 2 independent experiments. Statistical analysis was performed using unpaired t-test to corresponding untreated controls. Treatment with CuATSM indicates potential improvement in motor neuron survival for NEDAMSS patients (p<0.0001).
Astrocytes were treated with CuATSM starting day 2 of differentiation and then seeded in a 96 well plate in the absence of CuATSM to form a monolayer. Twenty hours later neurons were seeded on top of astrocyte monolayer and viability was determined following 3 days in culture (FIG. 20B). Motor neuron survival following co-culture was determined by quantifying the number of surviving neurons.

[3] = system: SCN2A iAstrocytes co-cultured with mouse neurons; assay: co-culture of CuATSM-pretreated SCN2A iAstrocytes with mouse GFP neurons; type: cell-based, human; details: 3 days in culture
Experimental: FIG. 8A) Schematic protocol of iNeuron reprogramming from patient fibroblasts. Fibroblast cells were seeded on 12-well plates and differentiated for 7 days into iNeurons. iNeurons were fixed and imaged/immunostained for Tuj1 neuronal marker. FIG. 8B) Representative images of fibroblasts (before) and iNeurons after reprogramming. FIG. 8C) Representative bright field images of iNeurons following seven days of differentiation (scale bar=50 μm). On day five of differentiation, cells were treated with 0.01% of CuATSM as well as on day seven. FIG. 8D) Quantification of neuron survival percentage after seven days of differentiation. Tuj1 positive cells from three to five different images per line were counted and data was normalized to the average count of healthy control. FIG. 8E) Schematic of drug screen co-culture assay. Astrocytes were treated during differentiation with CuATSM. […] 24 hours later mouse neurons were seeded on top of astrocyte monolayer and viability was determined following 3 days in culture. […]
The effect of CuATSM treatment on SCN2A iAstrocytes mediated neuron toxicity was investigated. […] Neuron survival was quantified following seven days of differentiation by counting cells with neurites two times the soma length. […] Twenty-four hours later, motor neurons were seeded on top of the astrocyte monolayer and viability was determined following 3 days in culture. […]

SMILES: CN=C([S-])N/N=C(C)/C(C)=N/NC([S-])=NC.[Cu+2] [CuATSM, diacetyl-bis(4-methylthiosemicarbazonato) copperII]
- degradation of peroxynitrite, preventing formation of nitrotyrosine [1]: can degrade peroxynitrite
- neuron survival following co-culture (astrocyte toxicity to neurons) [2]: prevented this toxicity
- neuron survival following co-culture ([3]; SCN2A-1 and SCN2A-3 iAstrocytes pretreated during differentiation): significantly increase neuron survival
- neuron survival following co-culture ([3]; SCN2A-2 iAstrocytes pretreated during differentiation): trend towards increased survival
